Assay results published in PubChem BioAssay AID248 (DTP/NCI, 2004).
Values joined by “and” are separate entries in the source; they are usually repeats but may differ in a detail not shown here. Identical values can stand only once. Inconclusive results and toxic doses are left out. Cut-off read from the data, not from the text of the source: active = T/C of 150% or more; inactive = T/C below 125%.

Test system: L1210 leukemia ip in BDF1 mice, survival T/C
Experiment: NCI In Vivo Anticancer Drug Screen. Data for tumor model L1210 Leukemia (intraperitoneal) in B6D2F1 (BDF1) mice
Conditions: endpoint: mean survival time, higher = longer survival
Method in brief: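 Mice bearing the transplanted tumor received compound or vehicle. Survival of the treated group was divided by that of the vehicle-treated control group to give the ratio.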

[1] = dose: 100.0 mg/kg/injection, schedule: Q01DX001 (ip), vehicle: acetone
[2] = dose: 100.0 mg/kg/injection, schedule: Q04DX003 (ip), vehicle: acetone
[3] = dose: 200.0 mg/kg/injection, schedule: Q01DX001 (ip), vehicle: acetone
[4] = dose: 200.0 mg/kg/injection, schedule: Q04DX003 (ip), vehicle: acetone
[5] = dose: 400.0 mg/kg/injection, schedule: Q01DX001 (ip), vehicle: acetone
[6] = dose: 400.0 mg/kg/injection, schedule: Q04DX003 (ip), vehicle: acetone
[7] = dose: 100.0 mg/kg/injection, schedule: Q04DX003 (ip), vehicle: saline
[8] = dose: 100.0 mg/kg/injection, schedule: Q01DX009 (ip), vehicle: saline with Tween-80
[9] = dose: 200.0 mg/kg/injection, schedule: Q01DX009 (ip), vehicle: saline with Tween-80
[10] = dose: 100.0 mg/kg/injection, schedule: Q01DX001 (ip), vehicle: Klucel (hydroxypropylcellulose) (HPC)
[11] = dose: 200.0 mg/kg/injection, schedule: Q01DX001 (ip), vehicle: Klucel (hydroxypropylcellulose) (HPC)
[12] = dose: 400.0 mg/kg/injection, schedule: Q01DX001 (ip), vehicle: Klucel (hydroxypropylcellulose) (HPC)

Measured: T/C

Cc1cccc(C)c1/C=C/S(=O)(=O)c1ccccc1
inactive: [1] 98 % of control | dose: 100.0 mg/kg/injection, schedule: Q01DX009 (ip), vehicle: saline 94 % of control | [2] 109 % of control | [3] 98 % of control | dose: 200.0 mg/kg/injection, schedule: Q01DX009 (ip), vehicle: saline 103 % of control | [4] 103 % of control | [5] 106 % of control | dose: 400.0 mg/kg/injection, schedule: Q01DX009 (ip), vehicle: saline 94 % of control | [6] 101 % of control

Nc1[nH][nH]c(=O)c1N=O
inactive: dose: 50.0 mg/kg/injection, schedule: Q01DX009 (ip), vehicle: Klucel (hydroxypropylcellulose) (HPC) 95 % of control | dose: 100.0 mg/kg/injection, schedule: Q01DX009 (ip), vehicle: Klucel (hydroxypropylcellulose) (HPC) 111 % of control | dose: 100.0 mg/kg/injection, schedule: Q04DX002 (ip), vehicle: saline 103 % of control | dose: 200.0 mg/kg/injection, schedule: Q01DX009 (ip), vehicle: Klucel (hydroxypropylcellulose) (HPC) 88 % of control | dose: 200.0 mg/kg/injection, schedule: Q04DX002 (ip), vehicle: saline 111 % of control | dose: 400.0 mg/kg/injection, schedule: Q04DX002 (ip), vehicle: saline 92 % of control

O=C(O)CCSc1ccc2c(c1)CCCC2
inactive: [2] 99 % of control | [4] 100 % of control | [6] 96 % of control

CC(=O)Oc1ccc(N2C(=O)C=CC2=O)cc1 (tested in a mixture with another compound)
inactive: [2] 96 % of control | dose: 100.0 mg/kg/injection, schedule: Q04DX003 (ip), vehicle: other 89 % of control | [4] 96 % of control | [6] 100 % of control | dose: 400.0 mg/kg/injection, schedule: Q04DX003 (ip), vehicle: other 87 % of control

CC(=O)c1c[nH]c2c(O)ccc(O)c12
inactive: dose: 6.25 mg/kg/injection, schedule: Q04DX002 (ip), vehicle: Klucel (hydroxypropylcellulose) (HPC) 93 % of control | dose: 12.5 mg/kg/injection, schedule: Q04DX002 (ip), vehicle: Klucel (hydroxypropylcellulose) (HPC) 96 % of control | dose: 25.0 mg/kg/injection, schedule: Q04DX002 (ip), vehicle: Klucel (hydroxypropylcellulose) (HPC) 99 % of control and 107 % of control

CC(=O)Oc1cc(OC(C)=O)c2ccccc2c1OC(C)=O
inactive: dose: 1.56 mg/kg/injection, schedule: Q04DX003 (ip), vehicle: saline 102 % of control | dose: 3.12 mg/kg/injection, schedule: Q04DX003 (ip), vehicle: saline 106 % of control | dose: 6.25 mg/kg/injection, schedule: Q04DX003 (ip), vehicle: saline 102 % of control | dose: 12.5 mg/kg/injection, schedule: Q01DX001 (ip), vehicle: saline 103 % of control | dose: 25.0 mg/kg/injection, schedule: Q01DX001 (ip), vehicle: saline 97 % of control | dose: 50.0 mg/kg/injection, schedule: Q01DX001 (ip), vehicle: saline 100 % of control

CCC(=O)C(c1ccccc1)(c1ccccc1)c1ccccc1
inactive: dose: 100.0 mg/kg/injection, schedule: Q04DX002 (ip), vehicle: other 95 % of control | dose: 200.0 mg/kg/injection, schedule: Q04DX002 (ip), vehicle: other 100 % of control

NC(N)=N/N=C(\CBr)c1ccc([N+](=O)[O-])cc1
inactive: dose: 15.0 mg/kg/injection, schedule: Q01DX Z (ip), vehicle: carboxymethylcellulose (CMC) 97 % of control | dose: 30.0 mg/kg/injection, schedule: Q01DX Z (ip), vehicle: carboxymethylcellulose (CMC) 92 % of control | dose: 30.0 mg/kg/injection, schedule: Q01DX Z (oral), vehicle: carboxymethylcellulose (CMC) 100 % of control | dose: 60.0 mg/kg/injection, schedule: Q01DX Z (ip), vehicle: carboxymethylcellulose (CMC) 98 % of control and 91 % of control | dose: 60.0 mg/kg/injection, schedule: Q01DX Z (oral), vehicle: carboxymethylcellulose (CMC) 103 % of control | dose: 120.0 mg/kg/injection, schedule: Q01DX Z (ip), vehicle: carboxymethylcellulose (CMC) 92 % of control | dose: 120.0 mg/kg/injection, schedule: Q01DX Z (oral), vehicle: carboxymethylcellulose (CMC) 102 % of control | dose: 240.0 mg/kg/injection, schedule: Q01DX Z (oral), vehicle: carboxymethylcellulose (CMC) 92 % of control

CCC(N)Cc1ccc2c(c1)OCO2 (configuration not stated)
inactive: dose: 25.0 mg/kg/injection, schedule: Q04DX003 (ip), vehicle: saline 98 % of control | dose: 50.0 mg/kg/injection, schedule: Q04DX003 (ip), vehicle: saline 101 % of control | [7] 100 % of control

Nc1ncnc2cc[nH]c12
inactive: dose: 88.0 mg/kg/injection, schedule: Q01DX001 (ip), vehicle: carboxymethylcellulose (CMC) 102 % of control and 104 % of control | dose: 133.0 mg/kg/injection, schedule: Q01DX001 (ip), vehicle: carboxymethylcellulose (CMC) 96 % of control and 104 % of control | dose: 200.0 mg/kg/injection, schedule: Q01DX001 (ip), vehicle: carboxymethylcellulose (CMC) 102 % of control and 106 % of control

ClC12CCCC3CCCC(CCC1)C32 (configuration not stated)
inactive: [8] 101 % of control | dose: 100.0 mg/kg/injection, schedule: Q04DX003 (ip), vehicle: Klucel (hydroxypropylcellulose) (HPC) 103 % of control | [9] 90 % of control | dose: 200.0 mg/kg/injection, schedule: Q04DX003 (ip), vehicle: Klucel (hydroxypropylcellulose) (HPC) 97 % of control | dose: 400.0 mg/kg/injection, schedule: Q01DX009 (ip), vehicle: saline with Tween-80 89 % of control | dose: 400.0 mg/kg/injection, schedule: Q04DX003 (ip), vehicle: Klucel (hydroxypropylcellulose) (HPC) 96 % of control

c1ccc2cc3nc4ccccc4nc3cc2c1
inactive: [1] 92 % of control | [7] 108 % of control | [3] 97 % of control | dose: 200.0 mg/kg/injection, schedule: Q04DX003 (ip), vehicle: saline 101 % of control | [5] 86 % of control | dose: 400.0 mg/kg/injection, schedule: Q04DX003 (ip), vehicle: saline 111 % of control

O=C1CCC(c2ccccc2)c2ccccc21 (configuration not stated)
inactive: [10] 99 % of control | [11] 97 % of control | [12] 100 % of control

O=C1OCc2c1cc1n(c2=O)Cc2cc3ccccc3nc2-1
inactive: [10] 89 % of control | [11] 89 % of control | [12] 103 % of control

CCOC(=O)/C=[C](\C(=O)OCC)[Sn]([CH2]C)([CH2]C)[CH2]C
inactive: dose: 50.0 mg/kg/injection, schedule: Q01DX009 (ip), vehicle: saline with Tween-80 104 % of control | [8] 96 % of control | [9] 93 % of control

CN=C(NN)NN
inactive: dose: 2.5 mg/kg/injection, schedule: Q01DX009 (ip), vehicle: saline 106 % of control | dose: 5.0 mg/kg/injection, schedule: Q01DX009 (ip), vehicle: saline 95 % of control | dose: 5.0 mg/kg/injection, schedule: Q04DX003 (ip), vehicle: saline 95 % of control | dose: 10.0 mg/kg/injection, schedule: Q01DX001 (ip), vehicle: saline 102 % of control | dose: 10.0 mg/kg/injection, schedule: Q01DX009 (ip), vehicle: saline 97 % of control | dose: 10.0 mg/kg/injection, schedule: Q04DX003 (ip), vehicle: saline 103 % of control | dose: 20.0 mg/kg/injection, schedule: Q01DX001 (ip), vehicle: saline 103 % of control | dose: 20.0 mg/kg/injection, schedule: Q04DX003 (ip), vehicle: saline 90 % of control
